From patent US8697911B2, “Rho kinase inhibitors” (Boehringer Ingelheim International GmbH, priority 2010, dated 2014)
Like-named read-outs stand apart in the source and are kept apart here.

Experiments:
[1] = system: neointimal formation in rats; conditions: cited from earlier work
Dahl salt-sensitive rats = conditions: rat, in vivo; cited from earlier work
[2] = system: spontaneously hypertensive rat, renal hypertensive rat and deoxycortisone acetate salt hypertensive rat models; conditions: cited from earlier work
ROCKII (1-543) [3] = molecular target: T1, ROCKII (1-543) (Homo sapiens (Human), UniProt O75116); assay: Luciferin-Luciferase Assay (Assay 1); format: biochemical; conditions: luciferin-luciferase residual ATP; 750 nM ATP, 7.5 nM kinase
Protocol: 1. Luciferin-Luciferase Assay
The activity of ROCKII (1-543) kinase is measured utilizing Cambrex PKLight ATP Detection Reagent, a homogeneous assay technology using luciferin-luciferase to quantify residual ATP. The assay is performed in 384-well low-volume, white, non-binding surface microtiter plates (Corning). The assay buffer is 25 mM HEPES, pH 7.5, 10 mM MgCl2, 50 mM KCl, 0.2% BSA, 0.01% CHAPS, 100 μM Na3VO4 and 0.5 mM DTT. Test compounds, dissolved in neat DMSO at 500 μg/mL, are serially diluted for dose response for a final starting concentration of 3 μg/mL in 1% DMSO of assay buffer. ROCKII (1-543) (62,408 Da) is diluted in assay buffer to a final concentration of 7.5 nM in a total volume of 15 μL. Positive controls are reaction mixtures containing no test compound; negative controls (blanks) are reaction mixtures containing no kinase. After 15 minutes of pre-incubation of the test compounds with the kinase, a mixture of ATP and peptide substrate ([…]) in assay buffer is added to each well for a final concentration of 750 nM ATP and 500 nM peptide, respectively. After 90 minutes of incubation of the kinase reaction at 28° C. temperature, 10 μL of PKLight ATP Detection Reagent (warmed to room temperature previously) is added to each well. The assay plate is incubated at room temperature for additional 15 minutes and then read on an Analyst in luminescence mode. Dose-response experiments for each of the test compounds are conducted in quadruplet. IC50 values of test compounds represent 50% response of the positive control from the dose-response curve.
Target sequence in this assay (O75116 1-543): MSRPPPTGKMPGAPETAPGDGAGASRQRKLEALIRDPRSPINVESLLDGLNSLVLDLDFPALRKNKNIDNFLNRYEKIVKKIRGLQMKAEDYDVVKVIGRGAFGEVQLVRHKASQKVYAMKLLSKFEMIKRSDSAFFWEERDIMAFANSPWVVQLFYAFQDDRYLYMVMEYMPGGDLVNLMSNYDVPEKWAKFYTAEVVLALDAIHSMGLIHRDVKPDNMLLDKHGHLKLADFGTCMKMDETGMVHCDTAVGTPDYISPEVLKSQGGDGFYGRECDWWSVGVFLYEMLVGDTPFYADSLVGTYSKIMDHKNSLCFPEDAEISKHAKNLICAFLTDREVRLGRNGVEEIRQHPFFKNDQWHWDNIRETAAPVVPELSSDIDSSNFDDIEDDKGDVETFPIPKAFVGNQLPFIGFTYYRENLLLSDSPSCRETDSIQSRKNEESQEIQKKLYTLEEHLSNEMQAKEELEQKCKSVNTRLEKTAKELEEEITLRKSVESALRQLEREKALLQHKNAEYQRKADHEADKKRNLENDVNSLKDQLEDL

ROCKII (1-543) [4] = molecular target: T1, ROCKII (1-543); assay: IMAP Assay (Assay 2); format: biochemical; conditions: IMAP fluorescence polarization; 100 μM ATP, 1 nM kinase
Protocol: This assay is performed using FAM S6 substrate peptide (Catalogue #R7184) and IMAP FP Screening Express Kit detection reagents from Molecular Devices (Sunnyvale, Calif.) in IMAP kinase reaction buffer (Tris-HCl, pH 7.2, 10 mM MgCl2, 0.05% NaN3, 0.1% phosphate-free BSA) containing 1 mM DTT. Test compounds dissolved in neat DMSO at 0.3 mg/mL are serially diluted 1 to 3 for concentration response in 100% DMSO. The DMSO serial dilutions are further diluted 33.33-fold in kinase reaction buffer, and 10 μL of this buffer dilution is transferred to Corning black 96-well half area NBS plates for a final top concentration of 3 μg/mL in 1% DMSO. 10 μL aliquot of 3 nM ROCKII (1-543) diluted in kinase reaction buffer is added to each assay well for a final concentration of 1 nM kinase. 10 μL of a mixture of 600 nM FAM S6 peptide and 300 μM ATP diluted in kinase reaction buffer is added to each well for a final concentration of 200 nM peptide and 100 μM ATP. The kinase reaction mixture is incubated for 60 minutes at room temperature. Positive controls are reaction mixtures containing no test compound and negative controls (blanks) are reaction mixtures containing no kinase. The kinase reaction is stopped by addition of 60 μL IMAP progressive binding reagent (Catalog #R7284) diluted 400-fold in 1× Binding buffer A. After 30 min of incubation at room temperature, the plates are read for fluorescence polarization on Analyst Plate Reader using Ex 485 nm, Em 530 nm, and FL 505 dichroic minor. The mP signals are converted to percent of control (POC) values using the formula: POC=100*(Signal−BCTRL)÷(PCTRL−BCTRL)
Where Signal is the test well signal, BCTRL is the average of background (negative control) well signals on the plate and PCTRL is the average of positive control well signals on the plate. For the concentration-responsive compounds, POC as a function of test compound concentration is fitted to a 4-parameter logistic equation of the form: Y=A+(B−A)/[1+(x/C)D]
Where A, B, C, and D are fitted parameters (parameter B is fixed at zero POC), and x and y are the independent and dependent variables, respectively. The IC50 is determined as the inflection point parameter, C.
Target sequence in this assay (O75116 1-543, species assumed): as the sequence (O75116 1-543) above

[5] = system: IL-1 beta-induced coronary stenosis; conditions: long term treatment; cited from earlier work
rat stroke model = conditions: in vivo; cited from earlier work

| SMILES | IC50 (ROCKII (1-543) [3]) | IC50 (ROCKII (1-543) [4]) | further results |
| --- | --- | --- | --- |
| C[C@@H](N)[C@H]1CC[C@H](C(=O)Nc2ccncc2)CC1 [Y-27632] | – | – | neointimal formation [1]: inhibited neointimal formation; ventricular hypertrophy and function (Dahl salt-sensitive rats): improve ventricular hypertrophy and function; effect on blood pressure ([2]; control rats): only a minor effect on blood pressure; effect on blood pressure ([2]; three rat models of hypertension): significantly decrease blood pressure |
| CN1CCc2nc(NC(=O)c3cccc(CNC(=O)N4CCc5c(C#N)cccc54)c3)sc2C1 [compound 90] | 3.1 nM | 17 nM | – |
| CN1CCc2ccc(NC(=O)c3cccc(CNC(=O)c4cc5ccc(C#N)cc5n4C)c3)cc2C1 [compound 92] | 4.1 nM | 17 nM | – |
| CN1CCc2ccc(NC(=O)c3cccc(CNC(=O)c4cc5cc(C#N)ccc5n4C)c3)cc2C1 [compound 94] | 8.1 nM | 46 nM | – |
| CN1CCc2ccc(NC(=O)c3cccc(CNC(=O)c4cc5cc(C(N)=O)ccc5n4C)c3)cc2C1 [compound 96] | 3.8 nM | 12.2 nM | – |
| CN1CCc2nc(NC(=O)c3cccc(CNC(=O)c4cc5cc(C#N)ccc5n4C)c3)sc2C1 [compound 124] | 3.8 nM | 11 nM | – |
| Cc1c(C(=O)NCc2cccc(C(=O)Nc3ccc4c(c3)CN(C)CC4)c2)nnn1-c1nonc1N [compound 125] | 5.9 nM | 26 nM | – |
| Cc1cc(-c2ncc(C(=O)NCc3cccc(C(=O)Nc4nc5c(s4)CN(C)CC5)c3)s2)ccn1 [compound 154] | 9.5 nM | 39 nM | – |
| CN1CCc2ccc(NC(=O)c3cccc(CNC(=O)c4ccc(-c5cc[nH]n5)cc4)c3)cc2C1 [compound 155] | 8.1 nM | 47 nM | – |
| CN1CCc2ccc(NC(=O)c3cccc(CNC(=O)c4ccc(-n5cncn5)cc4)c3)cc2C1 [compound 178, 4-[1,2,4]triazol-1-yl-benzoic acid 3-(2-methyl-1,2,3,4-tetrahydro-isoquinolin-7-ylcarbamoyl)-benzylamide] | 5.7 nM | 48 nM | – |
| CN1CCc2ccc(NC(=O)c3cccc(CNC(=O)c4ccc(-c5ccn[nH]5)cc4)c3)cc2C1 [compound 179] | 6.6 nM | 34 nM | – |
| CN1CCc2ccc(NC(=O)c3cccc(CNC(=O)c4cccc(-c5cnco5)c4)c3)cc2C1 [compound 190] | 6.5 nM | 56 nM | – |
| CN1CCc2ccc(NC(=O)c3cccc(CNC(=O)c4cnc(-c5cccnc5)s4)c3)cc2C1 [compound 194] | 4.8 nM | 30 nM | – |
| Cc1nccn1-c1ccc(C(=O)NCc2cccc(C(=O)Nc3ccc4c(c3)CN(C)CC4)c2)cc1 [compound 200] | 3 nM | 1.6 nM | – |
| O=S(=O)(c1cccc2cnccc12)N1CCCNCC1 [fasudil] | – | – | coronary constrictive remodeling [5]: promote a regression of coronary constrictive remodeling; coronary stenosis [5]: progressively reduce coronary stenosis; infarct size and neurologic deficit (rat stroke model): reduce both the infarct size and neurologic deficit |

Second part, led by results:

| IC50 (ROCKII (1-543) [3]) | IC50 (ROCKII (1-543) [4]) | SMILES | further results |
| --- | --- | --- | --- |
| 1.7 nM | 0.85 nM | CN1CCc2ccc(NC(=O)c3cccc(CNC(=O)c4cc5cc(C(N)=O)ccc5[nH]4)c3)cc2C1 [compound 86] | – |
| 1.4 nM | 1.25 nM | Cc1nc(-c2ccncc2)sc1C(=O)NCc1cccc(C(=O)Nc2ccc3c(c2)CN(C)CC3)c1 [compound 95] | – |
| 1.7 nM | 2.6 nM | CN(C)[C@H]1CCc2nc(NC(=O)c3cccc(CNC(=O)c4cn5cc(C#N)ccc5n4)c3)sc2C1 [compound 100] | – |
| 1.3 nM | 0.22 nM | CN1CCc2ccc(NC(=O)c3cccc(CNC(=O)c4cc(-c5ccncc5)[nH]n4)c3)cc2C1 [compound 119] | – |
| 1.7 nM | 3.9 nM | CN1CCc2ccc(NC(=O)c3cccc(CNC(=O)c4nnn(-c5nonc5N)c4-c4ccccc4)c3)cc2C1 [compound 123] | – |
| 1.3 nM | 0.195 nM | CN1CCc2ccc(NC(=O)c3cccc(CNC(=O)c4ccc(-c5ccncc5)cc4)c3)cc2C1 [compound 129] | – |
| 2.6 nM | 4.35 nM | Cc1cc(-c2ccc(C(=O)NCc3cccc(C(=O)Nc4nc5c(s4)CN(C)CC5)c3)cc2)ccn1 [compound 144, 3-[4-(2-picoline-4-yl)-benzamidomethyl-N-(5-methyl-4,5,6,7-tetrahydro-thiazolo[5,4-c]pyridin-2-yl)-benzamide]] | – |
| 1.9 nM | 0.57 nM | Cc1c(C(=O)NCc2cccc(C(=O)Nc3nc4c(s3)C[C@@H](N3CCOCC3)CC4)c2)nnn1-c1nonc1N [compound 152] | – |
